# Reference: ChEMBL document CHEMBL5291721, “A preclinical secondary pharmacology resource illuminates target-adverse drug reaction associations of marketed drugs” (Nat Commun, 2023)
# Experiments:
# [1] = target: T1, Muscarinic acetylcholine receptor M1 (Homo sapiens, UniProt P11229); type: functional, cell-based
# T1 sequence (P11229 whole entry): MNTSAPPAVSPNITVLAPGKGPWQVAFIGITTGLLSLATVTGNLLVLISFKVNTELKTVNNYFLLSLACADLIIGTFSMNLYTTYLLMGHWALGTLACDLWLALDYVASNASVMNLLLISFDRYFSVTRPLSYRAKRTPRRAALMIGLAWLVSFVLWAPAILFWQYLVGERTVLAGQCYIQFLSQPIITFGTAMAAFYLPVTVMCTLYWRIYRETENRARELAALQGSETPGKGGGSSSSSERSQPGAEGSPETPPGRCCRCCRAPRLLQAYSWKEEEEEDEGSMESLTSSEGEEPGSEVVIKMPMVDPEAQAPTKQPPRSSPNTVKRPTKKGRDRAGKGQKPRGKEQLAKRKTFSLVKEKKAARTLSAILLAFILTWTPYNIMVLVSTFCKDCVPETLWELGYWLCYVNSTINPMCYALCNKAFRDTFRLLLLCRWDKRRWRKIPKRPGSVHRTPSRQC
# [2] = target: cGMP-inhibited 3',5'-cyclic phosphodiesterase 3A (Homo sapiens, UniProt Q14432); type: functional
# Sequence of cGMP-inhibited 3',5'-cyclic phosphodiesterase 3A (Q14432 whole entry): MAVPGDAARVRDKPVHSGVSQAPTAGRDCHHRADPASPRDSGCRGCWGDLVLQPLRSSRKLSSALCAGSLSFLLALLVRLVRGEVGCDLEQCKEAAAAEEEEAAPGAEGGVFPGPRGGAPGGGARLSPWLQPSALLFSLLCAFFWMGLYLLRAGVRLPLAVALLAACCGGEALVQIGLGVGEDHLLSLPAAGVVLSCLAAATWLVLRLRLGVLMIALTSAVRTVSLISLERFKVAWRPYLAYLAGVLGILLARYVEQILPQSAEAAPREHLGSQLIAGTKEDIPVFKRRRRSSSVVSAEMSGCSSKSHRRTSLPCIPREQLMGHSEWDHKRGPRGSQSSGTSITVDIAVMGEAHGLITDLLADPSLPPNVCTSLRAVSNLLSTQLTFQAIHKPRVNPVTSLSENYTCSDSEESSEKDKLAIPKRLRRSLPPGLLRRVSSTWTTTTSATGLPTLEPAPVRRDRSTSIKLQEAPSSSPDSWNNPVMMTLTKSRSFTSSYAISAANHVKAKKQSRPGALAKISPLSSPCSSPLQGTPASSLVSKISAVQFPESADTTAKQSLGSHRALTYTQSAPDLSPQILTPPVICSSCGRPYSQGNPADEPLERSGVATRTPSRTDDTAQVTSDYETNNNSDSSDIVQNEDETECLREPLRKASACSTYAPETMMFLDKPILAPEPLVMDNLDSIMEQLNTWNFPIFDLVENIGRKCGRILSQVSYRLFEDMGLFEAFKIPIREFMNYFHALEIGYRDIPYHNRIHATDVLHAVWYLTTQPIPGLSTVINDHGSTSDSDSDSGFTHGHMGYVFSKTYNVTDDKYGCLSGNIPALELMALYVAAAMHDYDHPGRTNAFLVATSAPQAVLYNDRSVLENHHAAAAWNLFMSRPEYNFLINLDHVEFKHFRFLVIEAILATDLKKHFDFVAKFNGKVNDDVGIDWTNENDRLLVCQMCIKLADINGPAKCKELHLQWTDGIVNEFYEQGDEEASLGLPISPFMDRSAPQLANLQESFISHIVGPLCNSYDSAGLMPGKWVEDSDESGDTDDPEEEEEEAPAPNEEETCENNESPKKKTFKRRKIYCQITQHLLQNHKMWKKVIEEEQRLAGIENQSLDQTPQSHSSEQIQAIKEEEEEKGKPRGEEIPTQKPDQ
# [3] = target: T2, Estrogen receptor (Homo sapiens, UniProt P03372)
# T2 sequence (P03372 whole entry): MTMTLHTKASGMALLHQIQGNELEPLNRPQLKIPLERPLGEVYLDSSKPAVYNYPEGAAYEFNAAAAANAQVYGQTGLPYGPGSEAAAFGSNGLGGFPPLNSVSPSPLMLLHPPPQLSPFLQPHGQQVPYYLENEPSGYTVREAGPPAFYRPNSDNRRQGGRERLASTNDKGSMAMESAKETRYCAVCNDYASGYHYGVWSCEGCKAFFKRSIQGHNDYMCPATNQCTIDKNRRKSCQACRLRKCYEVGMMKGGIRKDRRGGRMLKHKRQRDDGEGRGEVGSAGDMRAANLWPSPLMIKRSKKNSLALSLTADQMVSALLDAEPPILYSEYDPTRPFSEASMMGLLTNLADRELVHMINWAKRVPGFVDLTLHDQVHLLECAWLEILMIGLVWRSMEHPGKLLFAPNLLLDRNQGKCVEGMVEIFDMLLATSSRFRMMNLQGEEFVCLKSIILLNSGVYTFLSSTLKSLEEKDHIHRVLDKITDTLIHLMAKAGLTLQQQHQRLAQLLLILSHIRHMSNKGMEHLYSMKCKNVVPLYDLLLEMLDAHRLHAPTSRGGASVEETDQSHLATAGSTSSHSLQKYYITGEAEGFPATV
# Note: assay procedure not described here.
smiles,measurement,setting,value
N#Cc1ccc(Oc2ccc3c(c2)COB3O)cc1 [CRISABOROLE],AC50,[1],13.7 µM
same,AC50,[2],> 30 µM
same,AC50,[3],> 30 µM
CN1CCCN(C(c2ccccc2)c2ccc(Cl)cc2)CC1 (configuration not stated) [HOMOCHLORCYCLIZINE],AC50,[1],0.12 µM
same,AC50,[3],> 30 µM
CC(COc1ccccc1)NC(C)C(O)c1ccc(O)cc1 (configuration not stated) [ISOXSUPRINE],AC50,[1],> 30 µM
same,AC50,[3],> 30 µM
O=C(CCC/C=C\C[C@@H]1[C@@H](CC[C@@H](O)CCc2ccccc2)[C@H](O)C[C@@H]1O)OCCCCO[N+](=O)[O-] [LATANOPROSTENE BUNOD],AC50,[1],> 10 µM
same,AC50,[3],> 30 µM
Cc1oc(=O)oc1COC(=O)[C@@H]1N2C(=O)[C@@H](NC(=O)[C@H](N)c3ccccc3)[C@H]2SC1(C)C [LENAMPICILLIN],AC50,[1],9.21 µM
same,AC50,[3],> 30 µM
COc1ccc(OC)c(C(O)C(C)N)c1 (configuration not stated) [METHOXAMINE],AC50,[1],> 30 µM
same,AC50,[3],> 30 µM
CC1(CCN2CCCCC2)C(=O)CCc2ccccc21 (configuration not stated) [NEPINALONE],AC50,[1],> 30 µM
same,AC50,[3],> 30 µM
COC(=O)C[C@](O)(CCCC(C)(C)O)C(=O)O[C@@H]1C(OC)=C[C@]23CCCN2CCc2cc4c(cc2[C@H]13)OCO4 [OMACETAXINE MEPESUCCINATE],AC50,[1],> 30 µM
same,AC50,[3],> 30 µM
CC[N+](C)(CC)CCOC(=O)C(O)(c1ccccc1)C1CCCCC1 (configuration not stated) [OXYPHENONIUM],AC50,[1],0.003 µM
same,AC50,[3],> 30 µM
C[C@@H]1C[C@H]2[C@@H]3C[C@H](F)C4=CC(=O)C=C[C@]4(C)[C@H]3[C@@H](O)C[C@]2(C)[C@@]1(O)C(=O)CO [PARAMETHASONE],AC50,[1],> 30 µM
same,AC50,[3],> 30 µM
CCC[C@H](N[C@@H](C)C(=O)N1[C@H](C(=O)O)C[C@@H]2CCCC[C@@H]21)C(=O)OCC [PERINDOPRIL],AC50,[1],> 30 µM
same,AC50,[3],> 30 µM
N[C@@H](Cc1ccccc1)C(=O)O [PHENYLALANINE],AC50,[1],> 30 µM
same,AC50,[3],> 30 µM
CCCn1cnc2c1c(=O)n(CCCCC(C)=O)c(=O)n2C [PROPENTOFYLLINE],AC50,[1],> 30 µM
same,AC50,[3],28.9 µM
Clc1ccc(C(Cn2ccnc2)OCc2csc3c(Cl)cccc23)c(Cl)c1 (configuration not stated) [SERTACONAZOLE],AC50,[1],9.44 µM
same,AC50,[3],> 30 µM
CC(OCCN1CCCCCC1)(c1ccccc1)c1ccc(Cl)cc1 (configuration not stated) [SETASTINE],AC50,[1],0.493 µM
same,AC50,[3],> 30 µM
COc1cc(C)c2c(Oc3cccc(C(F)(F)F)c3)c(OC)cc(NC(C)CCCN)c2n1 (configuration not stated) [TAFENOQUINE],AC50,[1],> 3 µM
same,AC50,[3],18.4 µM
CCCSc1nc(N[C@@H]2C[C@H]2c2ccc(F)c(F)c2)c2nnn([C@@H]3C[C@H](OCCO)[C@@H](O)[C@H]3O)c2n1 [TICAGRELOR],AC50,[1],8.29 µM
same,AC50,[3],> 30 µM
c1ccc2c(SC3=NCCN3)c[nH]c2c1 [TINAZOLINE],AC50,[1],> 30 µM
same,AC50,[3],> 30 µM
